According to a melting point compilation (Tetko et al.):
Values belong to the compound of their own block, whether it stands above or below them.

Structure (SMILES): O=C1c2ccccc2C(=O)N1c1n[nH]c2ncccc12
melting point: 254 °C

Structure (SMILES): Cc1c[nH]c(C)n1
melting point: 92 °C

Structure (SMILES): CCCCCCCCCCCCCCCC1CCCCC1
melting point: 29 °C

Structure (SMILES): C1CNCCCNCCNCCCNC1
melting point: 98 to 102 °C

Structure (SMILES): O=C(O)C(O)c1ccc(Cl)cc1 (centres undefined)
melting point: 120 °C

Structure (SMILES): BrCC1CO1 (centres undefined)
melting point: -40 °C

Structure (SMILES): CC1CCCCS1 (centres undefined)
melting point: -58 °C

Structure (SMILES): OCCCCCCCCCCCCCCO
melting point: 85.8 °C

Structure (SMILES): CCCCCCCCCBr
melting point: -29 °C

Structure (SMILES): NS(=O)(=O)c1ccc(SCCO)cc1
melting point: 112 °C

Structure (SMILES): Cc1ccc(NC(=O)N(C)C)cc1Cl
melting point: 148 °C

Structure (SMILES): CC(=CCNc1ncnc2nc[nH]c12)CO
melting point: 208 °C

Structure (SMILES): Nc1ccc(I)cc1Cl
melting point: 73 to 75 °C

Structure (SMILES): Nc1cc(C(F)(F)F)c(F)cc1Br
melting point: 27 °C

Structure (SMILES): CCCCc1c(C)nc(NCC)nc1OS(=O)(=O)N(C)C
melting point: 50.5 °C

Structure (SMILES): FC(F)C(F)C(F)(F)F (centres undefined)
melting point: -156 °C

Structure (SMILES): c1ccc(N2CCOCC2)cc1
melting point: 51 to 54 °C

Structure (SMILES): c1ccc(CCNc2cccc3cccnc23)cc1
melting point: 57.6 °C

Structure (SMILES): CC(C)(C)C(=O)Nc1ccc2nn(C3CCCC3)nc2c1
melting point: 136 °C

Structure (SMILES): O=C1NN=C(C(F)(F)F)C1=NNc1ccccc1C(=O)O
melting point: 274 °C

Structure (SMILES): Cc1ccc(S(=O)(=O)N2CCCN(S(=O)(=O)c3ccc(C)cc3)CCN(S(=O)(=O)c3ccc(C)cc3)CCC2)cc1
melting point: 238 °C

Structure (SMILES): CC12CCC3c4ccc(OC(=O)Cc5ccc(N(CCCl)CCCl)cc5)cc4CCC3C1CCC2OC(=O)Cc1ccc(N(CCCl)CCCl)cc1 (centres undefined)
melting point: 52.5 °C

Structure (SMILES): OC(c1ccc(F)cc1)(c1cncnc1)c1ccccc1Cl (centres undefined)
melting point: 126 °C

Structure (SMILES): Cc1ccc(S(=O)(=O)OCC(F)(F)F)cc1
melting point: 40 °C

Structure (SMILES): O=C1CCC(c2ccccc2)(C2CCN(Cc3ccccc3)CC2)C(=O)N1 (centres undefined)
melting point: 156 °C

Structure (SMILES): O=C(O)c1ccccc1C(=O)Nc1cccc2ccccc12
melting point: 185 °C

Structure (SMILES): C=COC(C)(C)C
melting point: -112 °C

Structure (SMILES): COC(=O)c1ccc(OC)c(OC)c1Cl
melting point: 46 to 48 °C

Structure (SMILES): Cc1cc(CO)nn1C
melting point: 50 to 51 °C

Structure (SMILES): S=c1[nH]ccn1-c1ccccc1
melting point: 177 to 179 °C

Structure (SMILES): Cc1nc(Cl)c2c3c(sc2n1)CCCC3
melting point: 94 to 95 °C

Structure (SMILES): CC(=O)OC1CCC2(C)C(CCC3C4CC=C(C=Cc5ccccc5)C4(C)CCC32)C1 (centres undefined)
melting point: 119 °C

Structure (SMILES): CC(=O)OC1CC[C@H]2[C@@H]3CC[C@@H]4C(Br)C(=O)CC[C@]4(C)[C@H]3CC[C@]12C (some centres undefined)
melting point: 181 °C

Structure (SMILES): Cc1cc2c(cc1S(N)(=O)=O)S(=O)(=O)CCC2
melting point: 236 °C

Structure (SMILES): c1cc2ccc3cccc4ccc(c1)c2c34
melting point: 153 °C

Structure (SMILES): CC(=O)c1cc(Cl)cc(Cl)c1O
melting point: 97 °C

Structure (SMILES): COc1ccc(C2=CCC3(C)C(CCC4C5CCC(O)C5(C)CCC43)C2)cc1 (centres undefined)
melting point: 163 to 169 °C

Structure (SMILES): O=C1OC(=O)C2CCCCC12 (centres undefined)
melting point: 32 °C

Structure (SMILES): c1ccc2nncnc2c1
melting point: 75.8 °C

Structure (SMILES): C=CN1CCCCCC1=O
melting point: 34 °C

Structure (SMILES): CN(C)C(=O)NC1CC2CC1C1CCCC21 (centres undefined)
melting point: 177 °C

Structure (SMILES): CCCCNc1ccccc1
melting point: -12 °C

Structure (SMILES): CC1=C(O)C(=O)C(C(C)C)CC1 (centres undefined)
melting point: 83 °C

Structure (SMILES): Cc1cc(C)c(CC(=NOCc2ccccc2)c2cc3cc(Br)ccc3o2)c(C)c1
melting point: 126 to 127 °C

Structure (SMILES): COC(=O)c1cnc(SC)nc1
melting point: 96 to 97 °C

Structure (SMILES): Cn1cnc(C(=O)Oc2c(F)c(F)c(F)c(F)c2F)c1
melting point: 131 to 132 °C

Structure (SMILES): CCCCCCCCCCCC(=O)Cl
melting point: -17 °C

Structure (SMILES): Fc1ccc(C2CCNCC2COc2ccc3c(c2)OCO3)cc1 (centres undefined)
melting point: 130 °C

Structure (SMILES): C=CC=CC#N
melting point: -60 °C

Structure (SMILES): C[C@@H]1N[C@H](C(=O)O)CC2c3ccccc3NC21 (some centres undefined)
melting point: 286 °C

Structure (SMILES): Nc1n[nH]c2ccc(C(F)(F)F)cc12
melting point: 135 °C

Structure (SMILES): Clc1c(Cl)c(Cl)c2c(c1Cl)Oc1c(Cl)c(Cl)c(Cl)c(Cl)c1O2
melting point: 330 °C

The next lines start with the values.

melting point: 210 to 213 °C
Structure (SMILES): Cc1cccc(Oc2ncccc2[N+](=O)[O-])c1C

melting point: 41 °C
Structure (SMILES): O=[N+]([O-])c1ccc(Cl)cc1O

melting point: 100 to 102 °C
Structure (SMILES): CCOC(=O)C(C=Cc1cccc(C=CC(C(=O)OCC)C(=O)OCC)c1)C(=O)OCC

melting point: 126 to 129 °C
Structure (SMILES): CC(C)(Oc1ccc(Cl)cc1)C(N)=O

melting point: 153 to 154 °C
Structure (SMILES): CC(=O)C(=Cc1ccc(-c2cccc([N+](=O)[O-])c2)o1)C(C)=O

melting point: 198 °C
Structure (SMILES): O=Cc1ccc(OCC(=O)O)cc1

melting point: 246 °C
Structure (SMILES): NC(=O)NN=CC(=O)c1ccc(C(=O)C=NNC(N)=O)cc1

melting point: 270 °C
Structure (SMILES): Cn1c(=O)c(C2=NNC(=O)C2=NNc2ccccc2Br)c(O)c2ccccc21

melting point: 172 °C
Structure (SMILES): CC(=O)N[C@@H](Cc1ccccc1)C(=O)O

melting point: 12 °C
Structure (SMILES): CCCC(=O)c1ccccc1

melting point: 107 °C
Structure (SMILES): O=[N+]([O-])/C(=C/c1ccccc1[N+](=O)[O-])c1ccccc1

melting point: 246 °C
Structure (SMILES): O=C(O)c1cc([N+](=O)[O-])cnc1O

melting point: 148 °C
Structure (SMILES): CC(C)NCC1CCc2cc(CO)c([N+](=O)[O-])cc2N1 (centres undefined)

melting point: 88 to 92 °C
Structure (SMILES): Cc1ccc2c(c1)C(=O)OC2=O

melting point: 249 °C
Structure (SMILES): CC(=O)Nc1cccc2c1ccc1nc(-c3ccccc3)c(-c3ccccc3)nc12

melting point: 194 to 196 °C
Structure (SMILES): O=[N+]([O-])c1cc([N+](=O)[O-])c(C(Br)=Cc2ccccc2)cc1/C=C\c1ccccc1

melting point: 176 to 178 °C
Structure (SMILES): O=C(O)c1ccc(CSc2ccc(C(F)(F)F)cn2)o1

melting point: 150 °C
Structure (SMILES): CC(NC(CCc1ccccc1)C(=O)O)C(=O)N1CCCC1C(=O)O (centres undefined)

melting point: 123 to 124 °C
Structure (SMILES): Cc1cc(C)c(CC(=O)c2cc3cc(Br)ccc3o2)c(C)c1

melting point: 150 to 151 °C
Structure (SMILES): NC(=S)Nc1cccc(Br)c1

melting point: 283 °C
Structure (SMILES): CC(=O)Nc1ccc(-c2ccc(NC(C)=O)cc2NC(C)=O)c(NC(C)=O)c1

melting point: 60 °C
Structure (SMILES): CCC(=O)c1ccc2ccccc2c1

melting point: 133 °C
Structure (SMILES): CCOc1ccccc1C(N)=O

melting point: 240 °C
Structure (SMILES): O=C(Nc1ccccc1)c1nn(-c2ccccc2)c(-c2ccc([N+](=O)[O-])cc2)c1S(=O)(=O)c1ccccc1

melting point: 177 to 179 °C
Structure (SMILES): COc1ccc(-c2cn3c(n2)sc2ccccc23)cc1

melting point: 239 to 240 °C
Structure (SMILES): O=C1/C(=N\Nc2ccccc2)C(c2ccc([N+](=O)[O-])cc2)=NN1c1ccccc1

melting point: 79 to 80 °C
Structure (SMILES): CC(=O)c1ccc(OCc2ccc(F)cc2)cc1

melting point: 216 °C
Structure (SMILES): Nc1nnc(Sc2ncccc2[N+](=O)[O-])s1

melting point: 28 °C
Structure (SMILES): CCC(=O)c1ccco1

melting point: 107 °C
Structure (SMILES): CC(=O)c1cn(C)c2ccccc12

melting point: 57 °C
Structure (SMILES): CC(C(=O)O)c1ccc(Cl)cc1 (centres undefined)

melting point: 290 °C
Structure (SMILES): O=c1c(Cc2c(O)oc3ccccc3c2=O)c(O)oc2ccccc12

melting point: 256 °C
Structure (SMILES): CC(=O)N1C(=O)/C(=C/c2ccccc2)c2cc3c(cc21)N(C(C)=O)C(=O)/C3=C/c1ccccc1

melting point: 206 °C
Structure (SMILES): O=C(O)c1cc2ccccc2[nH]1

melting point: 188 to 190 °C
Structure (SMILES): CCc1n[nH]c2cc(-c3ccccc3)nn12

melting point: 29 °C
Structure (SMILES): CC(C)(c1ccccc1)c1ccccc1

melting point: 128 °C
Structure (SMILES): COc1ccc2c(c1)OC1c3ccc(O)cc3OCC21 (centres undefined)
